# Assays:
# RIPK1 = biological target: T1, RIPK1 (Homo sapiens, UniProt Q13546); test: RIPK1 ADP-Glo biochemical kinase assay; conditions: 30 min at 30° C.
# T1 sequence (Q13546 1-671): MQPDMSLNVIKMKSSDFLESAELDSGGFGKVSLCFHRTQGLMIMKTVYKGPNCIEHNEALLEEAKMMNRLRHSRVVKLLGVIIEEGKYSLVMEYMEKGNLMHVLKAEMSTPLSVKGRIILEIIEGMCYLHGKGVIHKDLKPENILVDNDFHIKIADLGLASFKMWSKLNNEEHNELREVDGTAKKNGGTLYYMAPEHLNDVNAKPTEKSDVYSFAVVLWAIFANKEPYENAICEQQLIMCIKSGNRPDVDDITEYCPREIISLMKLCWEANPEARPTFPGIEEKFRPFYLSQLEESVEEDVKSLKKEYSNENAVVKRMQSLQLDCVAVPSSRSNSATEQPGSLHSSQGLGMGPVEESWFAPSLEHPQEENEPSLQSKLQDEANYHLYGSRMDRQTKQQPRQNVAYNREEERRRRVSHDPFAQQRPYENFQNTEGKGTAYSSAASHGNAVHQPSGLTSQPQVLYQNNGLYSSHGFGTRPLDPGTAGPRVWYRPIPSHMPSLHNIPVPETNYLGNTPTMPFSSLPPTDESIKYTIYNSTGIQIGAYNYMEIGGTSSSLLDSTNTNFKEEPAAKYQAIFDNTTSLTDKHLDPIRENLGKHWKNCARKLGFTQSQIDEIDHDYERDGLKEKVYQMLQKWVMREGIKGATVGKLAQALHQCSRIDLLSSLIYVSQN
# Procedure: The final reaction volume was 5.0 μl.
# Adding 5 μl of ADP-Glo™ terminated the reaction.
# murine RIP1 = biological target: T2, murine RIP1 (Mus musculus, UniProt Q60855); test: L929 cell necroptosis assay (TNFa + zVAD, CellTiter-Glo); type: cell-based
# T2 construct: U937 and L929 cells were obtained from the American Type Culture Collection; host or cells: L929
# T2 sequence (Q60855 1-656): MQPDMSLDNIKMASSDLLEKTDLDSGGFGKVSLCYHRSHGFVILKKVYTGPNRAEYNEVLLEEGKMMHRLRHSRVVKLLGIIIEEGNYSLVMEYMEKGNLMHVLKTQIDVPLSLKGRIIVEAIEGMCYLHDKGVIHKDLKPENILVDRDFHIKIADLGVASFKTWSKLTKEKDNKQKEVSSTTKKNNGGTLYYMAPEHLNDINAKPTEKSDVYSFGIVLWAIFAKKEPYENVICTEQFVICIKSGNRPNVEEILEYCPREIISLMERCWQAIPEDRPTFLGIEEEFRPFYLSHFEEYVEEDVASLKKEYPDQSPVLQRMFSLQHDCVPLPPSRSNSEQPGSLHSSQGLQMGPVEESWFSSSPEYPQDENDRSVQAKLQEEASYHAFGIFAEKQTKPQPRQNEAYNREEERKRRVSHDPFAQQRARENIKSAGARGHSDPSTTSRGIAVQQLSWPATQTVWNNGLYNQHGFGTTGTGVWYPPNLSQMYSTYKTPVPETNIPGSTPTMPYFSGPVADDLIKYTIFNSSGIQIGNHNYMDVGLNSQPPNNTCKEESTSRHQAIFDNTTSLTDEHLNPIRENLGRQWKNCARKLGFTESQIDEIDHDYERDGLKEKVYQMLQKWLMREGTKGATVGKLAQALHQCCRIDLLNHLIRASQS
# Procedure: (§1) In this example, U937 and L929 cells were exposed to compounds of the present disclosure and a cell necroptosis assay was conducted to evaluate the compounds' activity against human RIP1 and murine RIP1.
# (§2) U937 and L929 cells were obtained from the American Type Culture Collection (Manassa, Va., USA). Both cells were maintained in logarithmic growth phase in complete RPMI 1640 media (Sigma, ST Louis, Mo., USA) supplemented with 10% fetal bovine serum (Sigma, ST Louis, Mo., USA) at 37° C. with 5% CO2. For necroptosis assay, L929 cells were plated for 18 h in 100 µL/well medium at 10K cells/well in Costar 96-well black clear-bottom plates (Fisher Scientific, Hampton, N.H., USA); U937 cells were plated on the day of the assay in 50 µL/well medium containing 60 uM zVAD-fmk (Lonza, Basel, Switzerland) at 50K cells/well. Medium from L929 cells were removed from the 96-well plates and replaced with 50 µL/well new medium containing 40 uM zVAD-fmk. Each compound of the present disclosure evaluated in this example was serially diluted in DMSO from 2.5 mM in 4-fold dilutions, and then diluted 1:125 in complete medium. 50 µL/well 2× of the compound was then added to the cells in the plates. The cells were pre-incubated with the compound for 1 hour at 37° C. with 5% CO2 and before addition of 10 µL/well 11×TNFa (Peprotech, Rocky Hill, N.J., USA) to give a final concentration of 2 ng/mL for TNFa. The relative amount of necroptosis cells was determined by luminescent using a Wallac Victor2 Luminometer (PerkinElmer, Waltham, Mass., USA) and a CellTiter-Glo® Luminescent Cell Viability Reagent Assay (Promega, Madison, Wis., USA) added per manufacturer instructions after 18 hours of TNFa stimulation at 37° C. with 5% CO2.Results from this example are summarized in Table 2. This example establishes that embodiments of the compounds described herein have unexpectedly potent activity against human RIP1 and murine RIP1, which allows their assessment in in vivo mouse models of disease.
# human RIP1 = biological target: T3, human RIP1 (Homo sapiens, UniProt Q13546); test: U937 cell necroptosis assay (TNFa + zVAD, CellTiter-Glo); type: cell-based; conditions: U937 Zvad TNF CTG Recovery, U937 cells, TNFa 2 ng/mL + zVAD-fmk, 18 hours
# T3 construct: U937 and L929 cells were obtained from the American Type Culture Collection; host or cells: U937
# T3 sequence (Q13546 1-671): T1 sequence (Q13546 1-671)
# Procedure: as §1, §2
Compound,IC50 (RIPK1) [nM],IC50 (murine RIP1) [nM],IC50 (human RIP1) [nM]
"CN1C(=O)C(NC(=O)c2n[nH]c(Cc3ccccc3)n2)CCc2ccc(C#CC3(O)COC3)cc21 (racemic) [Compound I-16, (±)-5-Benzyl-N-(8-((3-hydroxyoxetan-3-yl)ethynyl)-1-methyl-2-oxo-2,3,4,5-tetrahydro-1H-benzo[b]azepin-3-yl)-1H-1,2,4-triazole-3-carboxamide]",229,150,8.4
"CN1C(=O)[C@@H](NC(=O)c2ccn(Cc3ccccc3)n2)CCc2ccc(C#CC(C)(C)C)cc21 [Compound I-33, (S)-1-Benzyl-N-(8-(3,3-dimethylbut-1-yn-1-yl)-1-methyl-2-oxo-2,3,4,5-tetrahydro-1H-benzo[b]azepin-3-yl)-1H-pyrazole-3-carboxamide]",54.6,30,7.6
"CN1C(=O)C(NC(=O)c2cc(Oc3ccccc3)ccn2)CCc2ccc(N3CC4(CCCCC4)C3)cc21 (racemic) [Compound I-30, (±)-N-(1-Methyl-2-oxo-8-(2-azaspiro[3.5]nonan-2-yl)-2,3,4,5-tetrahydro-1H-benzo[b]azepin-3-yl)-4-phenoxypicolinamide]",603,1170,16.2
"CN1C(=O)[C@@H](NC(=O)c2n[nH]c(Cc3ccccc3)n2)CCc2ccc(C#CC(C)(C)C)cc21 [Compound I-21, (S)-5-Benzyl-N-(8-(3,3-dimethylbut-1-yn-1-yl)-1-methyl-2-oxo-2,3,4,5-tetrahydro-1H-benzo[b]azepin-3-yl)-1H-1,2,4-triazole-3-carboxamide]",62.4,25.3,13.4
"[2H]C([2H])([2H])N1C(=O)C(NC(=O)c2n[nH]c(Cc3ccccc3)n2)CCc2ccc(N3CC4(CCOCC4)C3)cc21 (racemic) [Compound I-15, (±)-5-Benzyl-N-(1-(methyl-d3)-2-oxo-8-(7-oxa-2-azaspiro[3.5]nonan-2-yl)-2,3,4,5-tetrahydro-1H-benzo[b]azepin-3-yl)-1H-1,2,4-triazole-3-carboxamide]",106,257,7.9
"CN1C(=O)C(NC(=O)c2n[nH]c(Cc3ccccc3)n2)CCc2ccc(C#Cc3ccccn3)cc21 (racemic) [Compound I-20, (±)-5-Benzyl-N-(1-methyl-2-oxo-8-(pyridin-2-ylethynyl)-2,3,4,5-tetrahydro-1H-benzo[b]azepin-3-yl)-1H-1,2,4-triazole-3-carboxamide]",37,8.5,3.8
"CN1C(=O)[C@@H](NC(=O)c2n[nH]c(Cc3ccccc3)n2)CCc2ccc(N3CC4(CCOCC4)C3)cc21 [Compound I-17, (S)-5-Benzyl-N-(1-methyl-2-oxo-8-(7-oxa-2-azaspiro[3.5]nonan-2-yl)-2,3,4,5-tetrahydro-1H-benzo[b]azepin-3-yl)-1H-1,2,4-triazole-3-carboxamide]",36.6,229,3.9
"[2H]C([2H])([2H])N1C(=O)C(NC(=O)c2n[nH]c(Cc3ccccc3)n2)CCc2ccc(C#CC(C)(C)O)cc21 (racemic) [Compound I-14, (±)-5-Benzyl-N-(8-(3-hydroxy-3-methylbut-1-yn-1-yl)-1-(methyl-d)-2-oxo-2,3,4,5-tetrahydro-1H-benzo[b]azepin-3-yl)-1H-1,2,4-triazole-3-carboxamide]",129,43.3,7.3
"CN1C(=O)C(NC(=O)c2ncn(Cc3c(Cl)cccc3Cl)n2)CCc2ccc(CN3CCN(c4ccncc4)CC3)cc21 (racemic) [Compound I-3, (±)-1-(2,6-Dichlorobenzyl)-N-(1-methyl-2-oxo-8-((4-(pyridin-4-yl)piperazin-1-yl)methyl)-2,3,4,5-tetrahydro-1H-benzo[b]azepin-3-yl)-1H-1,2,4-triazole-3-carboxamide]",30.7,2530,5.8
